For assay [1], the target named is T1, androgen receptor (Homo sapiens, UniProt P10275).
T1 sequence (P10275 1-920 Q868H): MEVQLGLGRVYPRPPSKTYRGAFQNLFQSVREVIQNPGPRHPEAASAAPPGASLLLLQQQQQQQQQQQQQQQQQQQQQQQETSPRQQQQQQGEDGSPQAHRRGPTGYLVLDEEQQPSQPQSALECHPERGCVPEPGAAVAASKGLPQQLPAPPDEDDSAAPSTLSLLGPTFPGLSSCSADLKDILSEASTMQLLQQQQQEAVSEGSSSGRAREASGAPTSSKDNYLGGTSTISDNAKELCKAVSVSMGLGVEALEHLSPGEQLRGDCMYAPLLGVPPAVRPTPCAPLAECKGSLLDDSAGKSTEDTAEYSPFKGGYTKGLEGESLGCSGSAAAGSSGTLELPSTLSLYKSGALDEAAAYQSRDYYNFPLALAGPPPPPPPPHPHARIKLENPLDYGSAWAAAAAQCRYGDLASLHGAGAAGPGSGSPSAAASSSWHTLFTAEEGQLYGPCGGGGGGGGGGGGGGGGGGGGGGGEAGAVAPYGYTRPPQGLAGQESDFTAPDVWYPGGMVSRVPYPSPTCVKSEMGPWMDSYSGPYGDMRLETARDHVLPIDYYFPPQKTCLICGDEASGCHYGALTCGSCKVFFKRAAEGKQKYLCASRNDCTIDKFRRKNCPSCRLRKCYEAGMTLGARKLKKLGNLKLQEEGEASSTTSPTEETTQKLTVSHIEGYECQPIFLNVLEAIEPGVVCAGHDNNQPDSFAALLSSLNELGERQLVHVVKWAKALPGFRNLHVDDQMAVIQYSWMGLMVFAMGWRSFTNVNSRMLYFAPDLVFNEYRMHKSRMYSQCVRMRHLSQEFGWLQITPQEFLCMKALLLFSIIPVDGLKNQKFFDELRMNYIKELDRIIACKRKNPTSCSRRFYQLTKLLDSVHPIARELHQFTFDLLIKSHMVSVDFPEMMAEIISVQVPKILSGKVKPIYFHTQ
Description: AR antagonist cell assay (MDA-MB453-MMTV clone 54-19 luciferase reporter, 100 pM DHT). Type of assay: cell-based. As to conditions: MDA-MB453-MMTV clone 54-19, inhibition of 100 pM DHT induction, 17 hr; mean of multiple tests; read-out: AR Cell IC50. The method, boiled down: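 MDA-MB453 cells stably carrying an MMTV-ARE firefly luciferase reporter were plated overnight at 10,000/well in phenol-red-free, charcoal-stripped serum medium. Cells were stimulated with 100 pM DHT (final) for 17 hr at 37 °C, and AR antagonism was read as luciferase signal; values are means of multiple tests.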
(In general: Reporter assays use an easily measured gene product as a stand-in for the process of interest.)

Assay [2] relates to male C3H/HeN mice. Description: Modified telogen conversion assay (animal model for androgenetic alopecia). It is filed as in vivo, mouse. As to conditions: 3 w/v % topical, twice daily for 4 weeks. The text has this:
It has been discovered that male C3H/HeN mice may be used in the telogen conversion assay, when evaluating anti-androgen test compounds. Thus, the model relates to a modification of the existing telogen conversion assay. Male C3H/HeN mice approximately 7 weeks old are utilized. These animals are also uniformly in telogen, like their female counterparts. However, once shaven, the androgens inherently present in these male mice inhibit the conversion of the hair follicles to the anagen phase. An anti-androgen will block this androgenic effect and the follicles will convert to anagen, like their female counterparts.
The compound described in Example 1 was submitted for further testing utilizing the modified telogen conversion assay, described above. The testing was carried out in the following manner.
Male C3H/HeN mice, 6 to 7 weeks old (Charles River Laboratories, Raleigh, N.C.) were used for the study. Fur was clipped from the dorsal region of the mice prior to initiation of the study. Only mice with pink skin, a visual indication of the telogen phase, were selected for inclusion in the study. […]
The treatment area was observed and graded every other day for signs of hair growth. The hair growth response was quantified by recording, for each animal, the day on which signs of hair growth first appeared over the treated area. […]

This is an account of results in patent US7507860B2 (Pfizer Inc., priority 2004, dated 2009).

Structures are written as SMILES.

For orientation: IC50 means the midpoint of a concentration-inhibition curve. Take `CC(C)CC(Oc1ccc(C#N)c(C(F)(F)F)c1)C(=O)NCc1ccccc1` (stereo not drawn) [Example 1, 2-(4-Cyano-3-trifluoromethyl-phenoxy)-4-methyl-pentanoic acid benzylamide]: in assay [1], the IC50 was determined as 201 nM.
For the compound `CCCC(Oc1ccc(C#N)c(C(F)(F)F)c1)C(=O)NCc1ccccc1` (stereo not drawn) [Example 4, 2-(4-Cyano-3-trifluoromethyl-phenoxy)-pentanoic acid benzylamide], the “Induction of anagen (first signs of hair growth) versus vehicle control” value in assay [2] was “Anagen did not occur in the test group prior to its initiation in the vehicle control group”. Also, in assay [1], the IC50 is 57 nM.
